From ChEMBL document CHEMBL4813985, “Lead optimization generates selenium-containing miconazole CYP51 inhibitors with improved pharmacological profile for the treatment of fungal infections” (Eur J Med Chem, 2021)
In brackets after ≈: the same amount, converted by molar mass.

Key:
Candida albicans [1] = assay: Antifungal activity against fluconazole-resistant Candida albicans 904 assessed as inhibition of microbial growth after 24 hrs by broth microdilution method; assay type: functional
Candida albicans [2] = assay: Antifungal activity against fluconazole-resistant Candida albicans 632 assessed as inhibition of microbial growth after 24 hrs by broth microdilution method; assay type: functional
MCF-10A = assay: Cytotoxicity against human MCF-10A cells assessed as reduction in cell viability incubated for 96 hrs by MTT assay; assay type: cell-based; details: read-out: IC50
MDA-MB-231 = assay: Cytotoxicity against human MDA-MB-231 cells assessed as reduction in cell viability incubated for 96 hrs by MTT assay; details: MDA-MB-231, 96 h
Candida albicans [3] = assay: Antifungal activity against Candida albicans CPCC400616 measured after 24 hrs by broth microdilution assay; assay type: functional
[4] = Metabolic stability in mouse liver microsomes assessed as half life; assay type: ADME, Microsome
Candida albicans [5] = assay: Antifungal activity against fluconazole-resistant Candida albicans 17# assessed as inhibition of microbial growth after 24 hrs by broth microdilution method; assay type: functional
Candida albicans [6] = assay: Antifungal activity against Candida albicans ATCC SC5314 measured after 24 hrs by broth microdilution assay; assay type: functional
[7] = Hemolytic activity in rabbit RBC assessed as hemolysis ratio at 1 ug/ml measured after 3 hrs by microplate reader assay relative to control; assay type: ADME, cell-based, Oryctolagus cuniculus, Erythrocyte; details: rabbit red blood cells (erythrocytes), at 1 µg/mL, read-out: Activity
Erythrocyte = assay: Hemolytic activity in rabbit RBC measured after 3 hrs by microplate reader assay; assay type: ADME, cell-based, Oryctolagus cuniculus
Candida albicans [8] = assay: Antifungal activity against fluconazole-resistant Candida albicans 901 assessed as inhibition of microbial growth after 24 hrs by broth microdilution method; assay type: functional
Candida parapsilosis = assay: Antifungal activity against Candida parapsilosis ATCC 22019 measured after 24 hrs by broth microdilution assay; assay type: functional; details: Lodderomyces parapsilosis
[9] = Hemolytic activity in rabbit RBC assessed as hemolysis ratio at 8 ug/ml measured after 3 hrs by microplate reader assay relative to control; assay type: ADME, cell-based, Oryctolagus cuniculus, Erythrocyte; details: rabbit red blood cells (erythrocytes), at 8 µg/mL, read-out: Activity
[10] = Hemolytic activity in rabbit RBC assessed as hemolysis ratio at 16 ug/ml measured after 3 hrs by microplate reader assay relative to control; assay type: ADME, cell-based, Oryctolagus cuniculus, Erythrocyte; details: rabbit red blood cells (erythrocytes), at 16 µg/mL, read-out: Activity
HL-60 = assay: Cytotoxicity against human HL-60 cells assessed as reduction in cell viability incubated for 96 hrs by MTT assay; assay type: cell-based; details: HL-60, 96 h
Aspergillus fumigatus = assay: Antifungal activity against Aspergillus fumigatus CMGCC3.7795 measured after 72 hrs by broth microdilution assay; assay type: functional
PC-3 = assay: Cytotoxicity against human PC3 cells assessed as reduction in cell viability incubated for 96 hrs by MTT assay; assay type: cell-based; details: PC-3, 96 h, read-out: IC50
Cryptococcus neoformans = assay: Antifungal activity against Cryptococcus neoformans CMGCC2.3161 measured after 72 hrs by broth microdilution assay; assay type: functional
[Candida] zeylanoides = Antifungal activity against Candida zeylanoides CMGCC2.3739 measured after 24 hrs by broth microdilution assay; assay type: functional; details: Dujonia zeylanoides
[11] = Hemolytic activity in rabbit RBC assessed as hemolysis ratio at 2 ug/ml measured after 3 hrs by microplate reader assay relative to control; assay type: ADME, cell-based, Oryctolagus cuniculus, Erythrocyte; details: rabbit red blood cells (erythrocytes), at 2 µg/mL, read-out: Activity
[12] = Metabolic stability in mouse liver microsomes assessed as clearance; assay type: ADME, Microsome; details: read-out: CLH
Pichia kudriavzevii = assay: Antifungal activity against Candida krusei AS2.1045 measured after 24 hrs by broth microdilution assay; assay type: functional
Nakaseomyces glabratus = assay: Antifungal activity against Candida glabrata measured after 24 hrs by broth microdilution assay; assay type: functional
Candida albicans [13] = assay: Antifungal activity against fluconazole-resistant Candida albicans CaR assessed as inhibition of microbial growth after 24 hrs by broth microdilution method; assay type: functional
[14] = Hemolytic activity in rabbit RBC assessed as hemolysis ratio at 4 ug/ml measured after 3 hrs by microplate reader assay relative to control; assay type: ADME, cell-based, Oryctolagus cuniculus, Erythrocyte; details: rabbit red blood cells (erythrocytes), at 4 µg/mL, read-out: Activity

With `Clc1ccc(C(Cn2ccnc2)[Se]Cc2ccccc2Cl)c(Cl)c1` (stereo not given) the MIC (Candida albicans [1]) was 0.25 µg/mL, the MIC (Candida albicans [2]) was 1 µg/mL and the IC50 (MCF-10A) was 30.2 µM. It also gave an IC50 (MDA-MB-231) of 9.06 µM, an MIC (Candida albicans [3]) of 0.02 µg/mL (≈ 0.045 µM) and a half-life [4] of 4.2 min. It also gave an MIC (Candida albicans [5]) of 0.13 µg/mL, an MIC (Candida albicans [6]) of 0.01 µg/mL (≈ 0.0225 µM) and a hemolysis at 3 h, 1 ug/ml [7] of 0%. It also gave an MHC (Erythrocyte) of 4 µg/mL, an MIC (Candida albicans [8]) of 0.5 µg/mL and an MIC (Candida parapsilosis) of 0.13 µg/mL (≈ 0.292 µM). For the same compound, the hemolysis at 3 h, 8 ug/ml [9] was 93.2%, the hemolysis at 3 h, 16 ug/ml [10] was 98.2% and the IC50 (HL-60) was 1.02 µM. It also gave an MIC (Aspergillus fumigatus) of 2 µg/mL (≈ 4.5 µM), an IC50 (PC-3) of 13.1 µM and an MIC (Cryptococcus neoformans) of 0.25 µg/mL (≈ 0.562 µM). The MIC ([Candida] zeylanoides) was 1 µg/mL (≈ 2.25 µM), the hemolysis at 3 h, 2 ug/ml [11] was 3.15% and the CLint scaled [12] was 1310 mL/min/kg. It also gave an MIC (Pichia kudriavzevii) of 0.13 µg/mL (≈ 0.292 µM), an MIC (Nakaseomyces glabratus) of 0.5 µg/mL (≈ 1.12 µM) and an MIC (Candida albicans [13]) of 0.06 µg/mL. It also gave a hemolysis at 3 h, 4 ug/ml [14] of 58.9%.
